Values of other authors, collected in patent US20160378910A1, “MOLECULAR ACTIVE CENTER IDENTIFICATION USING TUNNELING BARRIERS AND/OR ASSOCIATED MEASUREMENTS FOR SUB-MOLECULAR QSAR” (Florida Institute of Technology, Inc., priority 2015, published 2016).

System: W-2 strain of P. falciparum
Conditions: W-2 strain of malaria (P. falciparum); rank among the twelve tryptanthrin analogs in the α3* lobe QSAR plot (FIG. 13)

IC50: highest
SMILES: O=C1c2cc(I)ccc2-n2c1nc1c(O)nc(O)nc1c2=O [1,3-diaza-2,4-hydroxy-8-iodotryptanthrin]
